Data on 26 compounds can be found in publication PMC9147790, “Synthesis of Coumarin Derivatives: A New Class of Coumarin-Based G Protein-Coupled Receptor Activators and Inhibitors” (Polymers, 2022).

Like-named read-outs stand apart in the source and are kept apart here. Bounds are passed on as bounds.

Test [1] relates to mouse GPCRs. Put plainly: DAS-ELISA evaluation of coumarin derivatives on GPCRs (inhibition/activation). It counts as biochemical. The following applies: for IC50: concentration achieving 50% inhibition of the GPCRs' standard at 10 ng/L; for IC50 / EC50: mean of two independent experiments ± SD; for EC50: concentration achieving 50% activation of the GPCRs' standard at 10 ng/L; for IC50(nM) (% INHIBITION): % inhibition (inhibition rate): value in parentheses beside the > IC50 bound, daphnetin: at 10 ng/L; for EC50(nM) (% Activation): % Activation: value in parentheses beside the > EC50 bound; for GPCR activation potency (in words) / GPCRs-inhibitory activity (in words): DAS-ELISA. The method, then: All chemicals and reagents used in the study were commercially available and used as received. Thin-layer chromatography (TLC) and column chromatography (300–400 mesh) were achieved using instruments from Qingdao Makall Group Co., Ltd. (Qingdao, China). ^1H NMR and ^13C NMR spectra were recorded on a Bruker DRX-500 (^1H/^13C, 500 MHz/125 MHz) spectrometer (Bruker, Bremerhaven, Germany) or a JEOL 400YH (^1H/^13C, 400 MHz/100 MHz) and chemical shifts were given in δ with the TMS as an internal reference. The ESI-MS spectroscopy was measured on an Advantage Max LCQ Thermo-Finnigan mass spectrometer. The ELISA kit was purchased from Shanghai Fusheng Industry Co., Ltd. (Shanghai, China), and the standard in the kit was Class B GPCRs.
All the synthesized coumarin derivatives were dissolved in 500 μL of DMSO, and then diluted to 1 mL by distilled water to get 1 mg/mL of stock solution. Finally, the stock solution was diluted to 1000 μg/L, 10 μg/L, 0.1 μg/L, and 0.001 μg/L in turn and stored in a refrigerator at 4 ℃ for reserve.
The inhibitory/activation activities of all of the synthesized coumarin derivatives on GPCRs were evaluated through incubation using mouse GPCRs provided by the ELISA kit (Shanghai Fusheng Industrial Co., Ltd. Shanghai, China). Other components of the kit included a water solution (30 times concentrated), a HRP conjunction reagent, a sample diluent, a standard diluent, standard, a chromogenic reagent A, a chromogenic reagent B, and a stop solution.
The 15 μL of stock solution and 15 μL of diluted standard solution were thoroughly mixed and incubated at 37 ℃ for 10 mins to prepare a reaction solution. The assay was conducted according to the kit protocol, that is, by adding the 25 μL of reaction solution to a 96-well enzyme-labeled plate containing solid phase anti-GPCRs antibodies. Then the plate was incubated for 30 mins at 37 ℃. Then, 25 μL of Chromogener A and 25 μL of Chromogener B were then added to react. Finally, 25 μL of the termination solution was added to each well to terminate the reaction and the mixture was fully mixed. Derivatives were tested in four different concentrations: 10 ng/L, 1 ng/L, […], and 10 μg/L. A diluent was prepared, dissolved and diluted with the other components of the kit according to the instructions in the kit, and a termination solution was added to the reaction. Then, the OD value was obtained by a microplate reader in 15 mins. All the derivatives were set into two independent experimental groups, and the inhibition of GCPRs, which was expressed as a percentage, was based on these groups.
Inhibition rate = [OD(positive) − OD(test compound)]/[OD(positive) − OD(blank)] ∗ 100%.
IC50/EC50 were obtained from Modified Karber formula [66] as the following: lgρ=Xm−IP−3−Pm−Pn/4
ρ: Concentration of compounds; Xm: Maximum dose; I = (Minimum inhibition rate)/Adjacent dose.
P: Sum of inhibition rates; Pm: Maximum inhibition rate; Pn: Minimum inhibition rate.
All values are the mean of two independent experiments ± SD.

In test [2] the test system is mouse GPCRs. On the set-up: method as in PMID 33142412. The following applies: earlier work shown in Figure 2; cited from earlier work.

Consider “4-Benzyl-7-ethoxy-4-methyl-2H-chromen-2-one [Derivative 23]”, for which half-maximal inhibition in the test with mouse GPCRs [1] (IC50) required 0.76 ± 0.7 nM. In turn, `Cc1cc(=O)oc2c(O)c(O)ccc12` [4a, reference compound] gave an EC50 in the test on mouse GPCRs [1] of 2.65 ± 0.25 nM. On to `O=c1ccc2ccc(O)c(O)c2o1` [Daphnetin, daphnetin, reference compound], for which, in the test with mouse GPCRs [1], the IC50 is above 10 nM and the “IC50(nM) (% INHIBITION): % inhibition (inhibition rate)” value came to 49.43%. In addition, in the test on mouse GPCRs [2], the EC50 is above 10 nM and the “Inhibition rate (in Figure 2)” value is recorded as 49.43%.

In turn, `O=c1cc(-c2ccc(F)cc2)c2ccc(O)c(O)c2o1` [Derivative 1, 4-(4-Fluorophenyl)-7,8-dihydroxy-2 H-chromen-2-one] yielded an EC50 in the test with mouse GPCRs [1] of 0.56 ± 0.02 nM. On to `O=c1cc(C(F)F)c2ccc(O)c(O)c2o1` [Derivative 2, 4-(Difluoromethyl)-7,8-dihydroxy-2H-chromen-2-one], for which, in the test on mouse GPCRs [1], the EC50 was above 43.8 nM and the “EC50(nM) (% Activation): % Activation” value is recorded as 39.82%.

For `O=c1cc(-c2ccccc2)c2ccc(O)c(O)c2o1` [Derivative 3, 7,8-Dihydroxy-4-phenyl-2H-chromen-2-one], in the test on mouse GPCRs [1], the EC50 was above 43.8 nM and the “EC50(nM) (% Activation): % Activation” value worked out at 35.75%. Consider `CCc1cc(=O)oc2c(O)c(O)ccc12` [Derivative 4, 4-Ethyl-7,8-dihydroxy-2H-chromen-2-one], for which, in the test on mouse GPCRs [1], the “GPCR activation potency (in words)” value is listed as “completely lost their GPCRs-activation potency” and the IC50 came to 0.15 ± 0.01 nM. On the same counts, the results for `CCCc1cc(=O)oc2c(O)c(O)ccc12` [Derivative 5, 7,8-Dihydroxy-4-propyl-2H-chromen-2-one] are “completely lost their GPCRs-activation potency” and 3.77 ± 0.58 nM. Consider `CC(=O)Oc1ccc2c(CCl)cc(=O)oc2c1OC(C)=O` [Derivative 7, 4-(Chloromethyl)-2-oxo-2H-chromene-7,8-diyl diacetate], for which, in the test on mouse GPCRs [1], the “GPCR activation potency (in words)” value is “no GPCR activation potency” and the IC50 was found to be 0.02 ± 0.01 nM. The corresponding values for `CCC(=O)Oc1ccc2c(CCl)cc(=O)oc2c1OC(=O)CC` [Derivative 8, 4-(Chloromethyl)-2-oxo-2H-chromene-7,8-diyl dipropionate] are “no GPCR activation potency” and 6.86 ± 0.04 nM. Consider `Cc1cc(=O)oc2cc(O)ccc12` [Derivative 9, 7-Hydroxy-4-methyl-2H-chromen-2-one], for which, in the test on mouse GPCRs [1], the “GPCRs-inhibitory activity (in words)” value is recorded as “no GPCRs-inhibitory activity”, the EC50 was 1.25 ± 0.89 nM and half-maximal inhibition (IC50) was put at 1.25 nM. With `COc1cc(=O)oc2cc(O)ccc12` [Derivative 10, 7-Hydroxy-4-methoxy-2H-chromen-2-one], in the test with mouse GPCRs [1], the IC50 is above 48.5 nM and the “IC50(nM) (% INHIBITION): % inhibition (inhibition rate)” value is recorded as 33.58%.

`CCc1c(C)c2ccc(O)cc2oc1=O` [Derivative 11, 3-Ethyl-7-hydroxy-4-methyl-2H-chromen-2-one]: in the test with mouse GPCRs [1], the EC50 is 1.28 ± 1.07 nM. With `Cc1c(C)c2ccc(O)cc2oc1=O` [Derivative 12, 7-Hydroxy-3,4-dimethyl-2H-chromen-2-one], the EC50 in the test with mouse GPCRs [1] was found to be 1.07 ± 0.33 nM. In the test with mouse GPCRs [1], `O=c1cc(C(F)(F)F)c2ccc(O)cc2o1` [Derivative 13, 7-Hydroxy-4-(trifluoromethyl)-2H-chromen-2-one] came in with an IC50 of 7.75 ± 7.23 nM. With `Cc1c(Cl)c(=O)oc2cc(O)ccc12` [Derivative 14, 3-Chloro-7-hydroxy-4-methyl-2H-chromen-2-one], in the test with mouse GPCRs [1], the EC50 was determined as 0.03 ± 0.02 nM. With `Cc1c(Cc2ccccc2)c(=O)oc2cc(O)ccc12` [Derivative 15, 3-Benzyl-7-hydroxy-4-methyl-2H-chromen-2-one], in the test with mouse GPCRs [1], the EC50 is 3.6 ± 0.11 nM and the IC50 was determined as 3.6 nM. In the case of `Cc1c(F)c(=O)oc2cc(O)ccc12` [Derivative 16, 3-Fluoro-7-hydroxy-4-methyl-2H-chromen-2-one], the EC50 in the test with mouse GPCRs [1] is 0.24 ± 0.21 nM.

For `Cc1c(C#N)c(=O)oc2cc(O)ccc12` [Derivative 17, 7-Hydroxy-4-methyl-2-oxo-2H-chromene-3-carbonitrile], the EC50 with mouse GPCRs [1] was determined as 0.03 ± 0.02 nM.

For `CCc1cc(=O)oc2cc(O)ccc12` [Derivative 18, 4-Ethyl-7-hydroxy-2H-chromen-2-one], in the test with mouse GPCRs [1], the “GPCRs-inhibitory activity (in words)” value is recorded as “no GPCRs-inhibitory activity” and the EC50 stood at 0.03 ± 0.01 nM. Consider `O=c1cc(CCl)c2ccc(O)cc2o1` [Derivative 19, 4-(Chloromethyl)-7-hydroxy-2H-chromen-2-one], for which, in the test with mouse GPCRs [1], the “GPCRs-inhibitory activity (in words)” value is recorded as “no GPCRs-inhibitory activity” and the EC50 turned out to be 4.22 ± 3.49 nM. Consider `O=c1cc(-c2ccccc2)c2ccc(O)cc2o1` [Derivative 20, 7-Hydroxy-4-phenyl-2H-chromen-2-one], for which, in the test on mouse GPCRs [1], the EC50 was above 42 nM and the “EC50(nM) (% Activation): % Activation” value worked out at 34.41%.

`Cc1cc(=O)oc2cc(Oc3ccnc(Cl)n3)ccc12` [Derivative 21, 7–((2–chloropyrimidin–4–yl)oxy)–4–methyl–2H–chromen–2–one]: in the test with mouse GPCRs [1], the EC50 was 0.02 ± 0.01 nM and it took 0.02 nM to reach half-maximal inhibition (IC50). Take `COc1ccc2c(C)c(Cc3ccccc3)c(=O)oc2c1` [Derivative 22, 3-Benzyl-7-methoxy-4-methyl-2H-chromen-2-one]: the IC50 with mouse GPCRs [1] amounted to 9.67 ± 2.59 nM. Turning to `CC(=O)Oc1ccc2c(C)c(Cc3ccccc3)c(=O)oc2c1` [Derivative 24, 3-Benzyl-4-methyl-2-oxo-2H-chromen-7-yl acetate], in the test with mouse GPCRs [1], the EC50 was above 35.7 nM and the “EC50(nM) (% Activation): % Activation” value came out at 32.82%. `CCC(=O)Oc1ccc2c(C)c(Cc3ccccc3)c(=O)oc2c1` [Derivative 25, 3-Benzyl-4-methyl-2-oxo-2H-chromen-7-yl propionate] had an EC50 in the test on mouse GPCRs [1] of 12 ± 9.47 nM.
